The results in this text go back to patent publication US12390532B2, “ALK protein regulator and anti-tumor application thereof” (SHANGHAITECH UNIVERSITY, priority 2019, dated 2025).

Where two headings read alike, the source gives them in different places.

The subject of test [1] is SR cells (NPM-ALK, human anaplastic large cell lymphoma cells). In words: Proliferation inhibition (IC50) in SR cells, CCK8 (WST) reagent. The test is classed as cell-based. The conditions noted are these: 72 h. As for the experimental part:
The ALK gene rearrangement positive cell line used was SR cells (NPM-ALK, human anaplastic large cell lymphoma cells). MDA-MB231 was a triple-negative breast cancer cell. Both SR cells and MDA-MB231 cells were purchased from ATCC.
The tumor cell line used was daily cultured in a 37° C. incubator containing 5% CO2. The medium was RPMI1640 supplemented with 10% FCS and Penicillin-Streptomycin.
The IC50 of the compound of the present disclosure was determined using Promega's Cell Titer Blue, Cell Titer GLO or commercially available WST reagents. The specific steps were as follows: the cells were seeded in a 96-well plate containing 100 microliters of RPMI medium containing serum at a number of 2000 cells/well. On the second day, the original drug and the compound of the present disclosure were serially diluted and added to the cells. After 72 hours of treatment with the compound of the present disclosure, the cell activity detection reagent was added to the culture medium for cell activity determination according to the instructions. The negative control was DMSO, and the positive control was the original drug, and the cells were treated in the same manner as the compound of the present disclosure. The growth inhibition of the compounds of the present disclosure on cells was plotted by Prism Graphpad software and the IC50 of the compounds of the present disclosure was counted from it.
We conducted dose-dependent experiments on the designed and synthesized compounds of the present disclosure in SR cells. […] The cells were treated with different concentrations of compounds (starting at 10 μM, 3 times dilution factor, 10 concentrations). After 72 hours, the cells were detected using CCK8 reagent (WST).

The target of test [2] is T1, ALK protein (Homo sapiens, UniProt Q9UM73).
T1 construct: We studied the total ALK protein in the anaplastic large cell lymphoma cell line SR; host or cells: SR cells (human anaplastic large cell lymphoma); the other entry of the earlier key: NPM1 (P06748, Nucleophosmin)
The test is described as follows: Western blot of ALK protein degradation in SR cells. Format: cell-based. How it is done: The ALK gene rearrangement positive cell line used was SR cells (NPM-ALK, human anaplastic large cell lymphoma cells). MDA-MB231 was a triple-negative breast cancer cell. Both SR cells and MDA-MB231 cells were purchased from ATCC. The 293T cells overexpressing EML4-ALK G1202R were the cells constructed and verified for correct expression by this laboratory.
Tumor cells were seeded in a 24-well plate containing 1 ml of RPMI1640 medium at 1.5-3×10^5 cells/well. The next day, the cells were treated with different concentrations of drugs. After 16 hours, the supernatant was removed and the cells were washed with PBS. The cells were placed on ice and the cells were treated with RIPA protein lysate containing Halt protease and phosphatase inhibitors. The lysate was centrifuged at 10000RPM at 4° C. for 10 minutes, and the supernatant was collected. The same amount of protein was added to the 4×SDS sample solution, denatured at 95° C. for 5 minutes and freezen to −20° C., or protein electrophoresis was directly performed. GenScript, a 4-20% gradient protein precast gel was used as the electrophoresis gel. The electrophoresis tank and related components were purchased from Bio-rad, and the electrophoresis conditions were equal pressure 120 v for 2 hours. PVDF membrane was used for the transfer membrane, and the transfer membrane system was placed on ice with an equal current of 400 mA for one hour. After transferring the membrane, it was sealed with TBST+5% milk powder for half an hour. For the specific steps of immunoblotting, refer to the antibody instructions of Cell Signaling Technology.
DC50 (the drug concentration corresponding to protein degradation to 50%) calculation: according to the gray value of the Western blotting band after the drug is processed, the relationship curve between the drug concentration and the gray value is fitted by Prism GraphPad software to calculate the drug concentration range corresponding half of the gray value.
The cells with different concentrations (0, 10, 50, 100, 500 nM) of Brigatinib were first treated in SR cells for 16 hours. Western blotting was used on cell lysate to detect the effect of Brigatinib on the content of ALK protein (FIG. 2).
On the technique in general: A western blot detects proteins with antibodies after separation by electrophoresis.

[3] abbreviates: SR cells, WST reagent, 72 hours, read-out: IC50 (half inhibitory concentration), Brigatinib series in lymphoma cell lines.
Setting [4] is: read-out: IC50 (half inhibitory concentration), Alectinib series in lymphoma cell lines, SR cells, WST reagent, 72 hours.

T1 sequence (Q9UM73 with tags, fused parts or gaps): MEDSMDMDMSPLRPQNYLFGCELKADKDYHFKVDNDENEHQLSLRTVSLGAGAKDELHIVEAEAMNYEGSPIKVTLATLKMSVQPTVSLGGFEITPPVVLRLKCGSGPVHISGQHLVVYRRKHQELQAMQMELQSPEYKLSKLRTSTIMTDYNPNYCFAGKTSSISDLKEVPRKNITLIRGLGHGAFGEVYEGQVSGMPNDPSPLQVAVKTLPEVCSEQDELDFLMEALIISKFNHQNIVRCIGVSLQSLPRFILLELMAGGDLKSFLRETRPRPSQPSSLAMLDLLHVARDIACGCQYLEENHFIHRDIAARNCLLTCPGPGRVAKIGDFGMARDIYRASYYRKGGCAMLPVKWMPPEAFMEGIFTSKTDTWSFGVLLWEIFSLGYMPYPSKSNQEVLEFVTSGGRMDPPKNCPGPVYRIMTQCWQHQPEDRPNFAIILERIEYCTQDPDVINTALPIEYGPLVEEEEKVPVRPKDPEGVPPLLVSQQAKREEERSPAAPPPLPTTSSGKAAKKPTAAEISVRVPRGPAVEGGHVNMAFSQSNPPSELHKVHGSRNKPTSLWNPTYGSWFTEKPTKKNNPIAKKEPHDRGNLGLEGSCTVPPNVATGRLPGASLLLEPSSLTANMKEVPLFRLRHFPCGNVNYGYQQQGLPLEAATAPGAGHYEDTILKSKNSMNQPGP

As to `COc1cc(N2CCC(N3CCN(CCCCC#Cc4cccc5c4CN(C4CCC(=O)NC4=O)C5=O)CC3)CC2)ccc1Nc1ncc(Cl)c(Nc2ccccc2P(C)(C)=O)n1` (centres unmarked) [SIAIS262040, 3-(4-(6-(4-(1-(4-((5-chloro-4-((2-(dimethylphosphono)phenyl)amino)pyrimidin-2-yl)amino)-3-methoxyphenyl)piperidin-4-yl)piperazin-1-yl)hex-1-yn-1-yl)-1-oxoisoindolin-2-yl)piperidine-2,6-dione], the IC50 in test [1] (setting [3]) worked out at 1.1 nM. Also, in test [2] (16 hours, concentration range at half of the gray value, read-out: DC50 (half degradation concentration), Brigatinib series in lymphoma cell lines), the DC50 was in the range of 0.05 to 0.5 nM. `CCc1cc2c(cc1N1CCC(N3CCN(C(=O)CNc4cccc5c4CN(C4CCC(=O)NC4=O)C5=O)CC3)CC1)C(C)(C)c1[nH]c3cc(C#N)ccc3c1C2=O` (centres unmarked) [SIAIS262091, 8-(4-(4-{(2-(2,6-dioxopiperidin-3-yl)-1-oxoisoindolin-4-yl)aminoacetyl)piperazin-1-yl)piperidin-1-yl)-9-ethyl-6,6-dimethyl-11-oxo-6,11-dihydro-5H-benzo[b]carbazole-3-carbonitrile]: the IC50 in test [1] (setting [4]) is roughly 0.34 nM. Further, the “concentration from which a degradation effect on ALK protein is shown” value in test [2] was “less than 0.005 nM”. In test [2] (read-out: DC50 (half degradation concentration), Alectinib series in lymphoma cell lines, 16 hours, concentration range at half of the gray value), the DC50 fell in the range of 0.05 to 0.5 nM.

On to `COc1cc(N2CCC(N3CCN(C(=O)COCCOCCOCCOCCOCCNc4cccc5c4CN(C4CCC(=O)NC4=O)C5=O)CC3)CC2)ccc1Nc1ncc(Cl)c(Nc2ccccc2P(C)(C)=O)n1` (centres unmarked) [SIAIS352057, 3-(4-((17-(4-(1-(4-((5-chloro-4-((2-(dimethylphosphono)phenyl)amino)pyrimidin-2-yl)amino)-3-methoxyphenyl)piperidin-4-yl)piperazin-1-yl)-17-oxo-3,6,9,12,15-pentaoxaheptadecyl)amino)-1-oxoisoindolin-2-yl)piperidine-2,6-dione], for which the IC50 in test [1] (setting [3]) was 102 ± 43.9 nM.

In the case of `CCc1cc2c(cc1N1CCC(N3CCN(CCCCC#Cc4cccc5c4CN(C4CCC(=O)NC4=O)C5=O)CC3)CC1)C(C)(C)c1[nH]c3cc(C#N)ccc3c1C2=O` (centres unmarked) [SIAIS293002, 8-(4-(4-(6-(2-(2,6-dioxopiperidin-3-yl)-1-oxoisoindolin-4-yl)hex-5-yn-1-yl)piperazin-1-yl)piperidin-1-yl)-9-ethyl-6,6-dimethyl-11-oxo-6,11-dihydro-5H-benzo[b]carbazole-3-carbonitrile], the IC50 in test [1] (setting [4]) came to 2.9 nM. As for `COc1cc(N2CCC(N(C)CCCC#Cc3cccc4c3CN(C3CCC(=O)NC3=O)C4=O)CC2)ccc1Nc1ncc(Cl)c(Nc2ccccc2P(C)(C)=O)n1` (centres unmarked) [SIAIS353050, 3-(4-(5-((1-(4-((5-chloro-4-((2-(dimethylphosphono)phenyl)amino)pyrimidin-2-yl)amino)-3-methoxyphenyl)piperidin-4-yl)(methyl)amino)pent-1-yn-1-yl)-1-oxoisoindolin-2-yl)piperidine-2,6-dione], the IC50 in test [1] (setting [3]) turned out to be 4.8 ± 0.1 nM. As for `CCc1cc2c(cc1N1CCN(CCCCCc3cccc4c3CN(C3CCC(=O)NC3=O)C4=O)CC1)C(C)(C)c1[nH]c3cc(C#N)ccc3c1C2=O` (centres unmarked) [SIAIS350081, 8-(4-(5-(2-(2,6-dioxopiperidin-3-yl)-1-oxoisoindolin-4-yl)pentyl)piperazin-1-yl)-9-ethyl-6,6-dimethyl-11-oxo-6,11-dihydro-5H-benzo[b]carbazole-3-carbonitrile], the IC50 in test [1] (setting [4]) turned out to be 6.5 ± 4 nM. As for `COc1cc(N2CCC(N(C)CCCCSc3cccc4c3CN(C3CCC(=O)NC3=O)C4=O)CC2)ccc1Nc1ncc(Cl)c(Nc2ccccc2P(C)(C)=O)n1` (centres unmarked) [SIAIS353043, 3-(4-((4-((1-(4-((5-chloro-4-((2-(dimethylphosphono)phenyl)amino)pyrimidin-2-yl)amino)-3-methoxyphenyl)piperidin-4-yl) (methyl)amino)butyl)thio)-1-oxoisoindolin-2-yl)piperidine-2,6-dione], the IC50 in test [1] (setting [3]) was determined as 0.9 ± 0.2 nM.

On to `CCc1cc2c(cc1N1CCC(N3CCNCC3)CC1)C(C)(C)c1[nH]c3cc(C#N)ccc3c1C2=O` [Alectinib derivative C (SIAIS184192), 9-Ethyl-6,6-dimethyl-11-oxo-8-(4-(piperazin-1-yl)piperidin-1-yl)-6,11-dihydro-5H-benzo[b]carbazole-3-carbonitrile], for which the IC50 in test [1] (setting [4]) stood at 10.1 ± 4.3 nM. Regarding `COc1cc(N2CCC(NCCCCCCSc3cccc4c3CN(C3CCC(=O)NC3=O)C4=O)CC2)ccc1Nc1ncc(Cl)c(Nc2ccccc2P(=O)(OC)OC)n1` (centres unmarked) [SIAIS293110, 3-(4-((6-((1-(4-((5-chloro-4-((2-(dimethylphosphono)phenyl)amino)pyrimidin-2-yl)amino)-3-methoxyphenyl)piperidin-4-yl)amino)hexyl)thio)-1-oxoisoindolin-2-yl)piperidine-2,6-dione], the IC50 in test [1] (setting [3]) was determined as 0.33 ± 0.11 nM. Consider `CCc1cc2c(cc1N1CCC(N3CCN(CCCCCCCC#Cc4cccc5c4CN(C4CCC(=O)NC4=O)C5=O)CC3)CC1)C(C)(C)c1[nH]c3cc(C#N)ccc3c1C2=O` (centres unmarked) [SIAIS293004, 8-(4-(4-(9-(2-(2,6-dioxopiperidin-3-yl)-1-oxoisoindolin-4-yl)non-8-yn-1-yl)piperazin-1-yl)piperidin-1-yl)-9-ethyl-6,6-dimethyl-11-oxo-6,11-dihydro-5H-benzo[b]carbazole-3-carbonitrile], for which the IC50 in test [1] (setting [4]) was 9.5 nM.

As for `COc1cc(N2CCC(N(C)C(=O)CSc3cccc4c3CN(C3CCC(=O)NC3=O)C4=O)CC2)ccc1Nc1ncc(Cl)c(Nc2ccccc2P(C)(C)=O)n1` (centres unmarked) [SIAIS353007, N-(1-(4-((5-chloro-4-((2-(dimethylphosphono)phenyl)amino)pyrimidin-2-yl)amino)-3-methoxyphenyl)piperidin-4-yl)-2-((2-(2,6-dioxopiperidin-3-yl)-1-oxoisoindolin-4-yl)thio)-N-methyl acetamide], the IC50 in test [1] (setting [3]) came to 17.1 ± 10.9 nM. With `COc1cc(N2CCC(N3CCN(C(=O)COCCOCCOCCNc4cccc5c4CN(C4CCC(=O)NC4=O)C5=O)CC3)CC2)ccc1Nc1ncc(Cl)c(Nc2ccccc2P(C)(C)=O)n1` (centres unmarked) [SIAIS352055, 3-(4-((2-(2-(2-(2-(4-(1-(4-((5-chloro-4-((2-(dimethylphosphono)phenyl)amino)pyrimidin-2-yl)amino)-3-methoxyphenyl)piperidin-4-yl)piperazin-1-yl)-2-oxoethoxy)ethoxy)ethoxy)ethyl)amino)-1-oxoisoindolin-2-yl)piperidine-2,6-dione], the IC50 in test [1] (setting [3]) was determined as 15 ± 4.4 nM. For `CCc1cc2c(cc1N1CCC(N3CCN(CCCCCCNc4cccc5c4C(=O)N(C4CCC(=O)NC4=O)C5=O)CC3)CC1)C(C)(C)c1[nH]c3cc(C#N)ccc3c1C2=O` (centres unmarked) [SIAIS293009, 8-(4-(4-(6-((2-(2,6-dioxopiperidin-3-yl)-1,3-dioxoisoindolin-4-yl)amino)hexyl)piperazin-1-yl)piperidin-1-yl)-9-ethyl-6,6-dimethyl-11-oxo-6,11-dihydro-5H-benzo[b]carbazole-3-carbonitrile], the IC50 in test [1] (setting [4]) was 15.1 nM. For the compound `CCc1cc2c(cc1N1CCC(N3CCN(CCCCSc4cccc5c4CN(C4CCC(=O)NC4=O)C5=O)CC3)CC1)C(C)(C)c1[nH]c3cc(C#N)ccc3c1C2=O` (centres unmarked) [SIAIS293060, 8-(4-(4-(4-((2-(2,6-dioxopiperidin-3-yl)-1-oxoisoindolin-4-yl)thio)butyl)piperazin-1-yl)piperidin-1-yl)-9-ethyl-6,6-dimethyl-11-oxo-6,11-dihydro-5H-benzo[b]carbazole-3-carbonitrile], in test [1] (setting [4]), the IC50 is 0.1 ± 0.02 nM.
